This is an account of results in US4736045A, “Process for fluorinating ethers” (priority 1983, dated 1988).

Molecules are shown by their SMILES.

The nature of this series: Critical temperature and normal boiling point of heat pump working fluids. As to conditions: working fluid in a heat pump (TC = 150° C., TE = 100° C.). The class given is physicochemical.

On to `FC(F)(F)C(F)(F)C(F)(F)C1(F)OC(F)(F)C(F)(F)C1(F)F` (stereo not shown) [perfluoro-2-propyloxolane], for which the critical temperature is 206 °C and the normal boiling point came out at 79 °C.

In turn, `COCC(F)(F)C(F)C(F)(F)F` (stereo not shown) [1.1.1.2.3.3. hexafluoro butyl methyl ether] yielded a critical temperature of 236 °C and a normal boiling point of 87 °C.
